The values below come from US9994552B2, “Compositions useful for treating disorders related to kit” (BLUEPRINT MEDICINES CORPORATION, priority 2013, dated 2018).

Molecules are shown by their SMILES.

In general, IC50 refers to the concentration that inhibits the measured activity by half.

One experiment deals with D816V Kit (Homo sapiens (Human), UniProt P10721, D816V). Put plainly: Kit D816V assay at Km (Caliper electrophoretic mobility shift). In kind it is biochemical. Conditions: for IC50: D816V Kit 0.5 nM, 15 uM ATP (Km), 1 uM Srctide, 25 C, 90 minutes, read-out: INH-KITD816V ENZ-KM IC50 (nM) (Num); for times more potent against the D816V mutant than against the wild-type Kit: D816V Kit versus wild-type Kit, enzyme assays at Km. As to the method:
(§1) In order to assess the activity of chemical compounds against the relevant kinase of interest, the Caliper LifeSciences electrophoretic mobility shift technology platform is used. Fluorescently labeled substrate peptide is incubated in the presence of kinase and ATP so that a […] proportion of the peptide is phosphorylated. At the end of the reaction, the mix of phosphorylated (product) and non-phosphorylated (substrate) peptides are passed through the microfluidic system of the Caliper EZ Reader 2, under an applied potential difference. The presence of the phosphate group on the product peptide provides a difference in mass and charge between those of the substrate peptide, resulting in a separation of the substrate and product pools in the sample. As the pools pass a LEDS within the instrument, these pools are detected and resolved as separate peaks. The ratio between these peaks therefore reflects the activity of the chemical matter at that concentration in that well, under those conditions.
(§2) The reaction was stopped by the addition of 70 ul of Stop buffer (100 mM HEPES pH 7.5, 0.015% Brij 35, 35 mM EDTA and 0.2% of Coating Reagent 3 (Caliper Lifesciences)). The plate was then read on a Caliper EZReader 2 (protocol settings: −1.9 psi, upstream voltage −700, downstream voltage −3000, post sample sip 35 s).

The next experiment addresses wild type Kit (Homo sapiens (Human), UniProt P10721). Put plainly: Kit wild type assay at Km (Caliper electrophoretic mobility shift). In kind it is biochemical. The note with it: wild type Kit 2 nM, 400 uM ATP (Km), 1 uM Srctide, 25 C, 90 minutes; read-out: INH-KITWT ENZ-KM IC50 (nM) (Num). As for the experimental part: as §1, §2

Sequence of wild type Kit (P10721 26-976): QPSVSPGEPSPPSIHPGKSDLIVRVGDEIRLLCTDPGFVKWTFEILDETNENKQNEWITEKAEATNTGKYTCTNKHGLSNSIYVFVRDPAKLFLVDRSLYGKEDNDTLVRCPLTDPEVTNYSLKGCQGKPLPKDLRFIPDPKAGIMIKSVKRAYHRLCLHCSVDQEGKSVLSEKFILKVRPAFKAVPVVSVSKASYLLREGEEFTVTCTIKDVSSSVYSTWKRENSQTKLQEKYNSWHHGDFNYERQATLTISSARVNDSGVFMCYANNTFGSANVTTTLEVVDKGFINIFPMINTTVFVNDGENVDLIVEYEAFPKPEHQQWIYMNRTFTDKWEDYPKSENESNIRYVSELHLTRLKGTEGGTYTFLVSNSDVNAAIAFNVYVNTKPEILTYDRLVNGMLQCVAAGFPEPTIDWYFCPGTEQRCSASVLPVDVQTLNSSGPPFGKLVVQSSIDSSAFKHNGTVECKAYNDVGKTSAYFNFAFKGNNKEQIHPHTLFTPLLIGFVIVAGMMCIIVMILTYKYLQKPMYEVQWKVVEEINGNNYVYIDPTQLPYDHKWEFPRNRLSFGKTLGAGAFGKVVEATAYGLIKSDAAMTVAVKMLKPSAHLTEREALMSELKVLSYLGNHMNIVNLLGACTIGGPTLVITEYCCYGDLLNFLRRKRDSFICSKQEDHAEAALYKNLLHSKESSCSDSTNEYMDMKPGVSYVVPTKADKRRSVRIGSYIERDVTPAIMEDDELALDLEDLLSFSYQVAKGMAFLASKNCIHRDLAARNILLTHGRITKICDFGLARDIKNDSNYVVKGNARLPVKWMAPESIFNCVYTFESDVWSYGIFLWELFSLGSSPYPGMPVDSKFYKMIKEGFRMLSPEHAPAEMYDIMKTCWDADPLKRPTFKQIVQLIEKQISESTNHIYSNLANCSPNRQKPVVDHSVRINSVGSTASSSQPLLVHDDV
Sequence of D816V Kit (P10721 26-976 D816V): as the sequence (P10721 26-976) above, with D791V counted along it

As to `COc1cccc(Cc2cnc(N3CCN(c4ncnc5cc(OC)c(OC)cc45)CC3)nc2)c1` [Compound 57], at D816V Kit, the IC50 was less than 1 nM and the “times more potent against the D816V mutant than against the wild-type Kit” value (“times more potent” below) is “at least 100 times”. The IC50 at wild type Kit lay in the range of 11 to 100 nM.
As for `COc1ccc(Cc2cnc(N3CCN(c4ncnc5cc(OC)c(OC)cc45)CC3)nc2)cc1` [Compound 58], the results for the IC50 at D816V Kit and on wild type Kit were 1.01 to 10 nM and 11 to 100 nM, respectively.
On the same counts, the results for `COc1cc2ncnc(N3CCN(c4ncc(O[C@H](C)c5ccccc5)cn4)CC3)c2cc1OC` [Compound 59] are 1.01 to 10 nM and 100 to 1000 nM.
Turning to `COc1cc2ncnc(N3CCN(c4ncc(OCc5ccccc5)cn4)[C@H](C)C3)c2cc1OC` [Compound 60], the IC50 at D816V Kit fell in the range of 10 to 100 nM; on wild type Kit, 100 to 1000 nM.
On the same counts, the results for `COc1cc2ncnc(N3CCN(c4ncc(OCc5cccc(C)c5)cn4)CC3)c2cc1OC` [Compound 61] are 10 to 100 nM and 100 to 1000 nM.
Take `COc1cc2ncnc(N3CCN(c4ncc(OCc5ccc(C)cc5)cn4)CC3)c2cc1OC` [Compound 62]: the figures for the IC50 at D816V Kit and on wild type Kit were 10 to 100 nM and more than 1000 nM, respectively. Further, the “times more potent” value at D816V Kit is on record as “at least 100 times”.
For `COc1cc2ncnc(N3CCN(c4ncc(OC(C)c5ccccc5)cn4)CC3)c2cc1OC` (stereo not shown) [Compound 63], the IC50 at D816V Kit lay in the range of 10 to 100 nM; at wild type Kit, 100 to 1000 nM.
On the same counts, the results for `COc1cc2ncnc(N3CCN(c4ncc(O[C@@H](C)c5ccccc5)cn4)CC3)c2cc1OC` [Compound 64] are 10 to 100 nM and more than 1000 nM.
On the same counts, the results for `COc1cc2ncnc(N3CCN(c4ncc(OCc5ccccc5C)cn4)CC3)c2cc1OC` [Compound 65] are 10 to 100 nM and more than 1000 nM.
With `COc1cc2ncnc(N3CCN(c4ncc(OCc5ccccc5)cn4)C(C)C3)c2cc1OC` (stereo not shown) [Compound 66], the figures for the IC50 at D816V Kit and at wild type Kit were 10 to 100 nM and more than 1000 nM, respectively.
Consider `COc1cc2ncnc(N3CCN(c4ncc(OCc5ccccc5)cn4)C[C@H]3C)c2cc1OC` [Compound 67], for which, on D816V Kit, the IC50 is more than 100 nM and the “times more potent” value is “less than 5 times”. For the same molecule, the IC50 at wild type Kit is more than 1000 nM.
Turning to `COc1cc2ncnc(N3CCN(c4ncc(OCc5ccc(F)cc5)cn4)CC3)c2cc1OC` [Compound 69], the IC50 at D816V Kit lay within 10 to 100 nM; on wild type Kit, 100 to 1000 nM.
For the molecule `COc1cc2ncnc(N3CCN(c4ncc(Nc5ccc(Cl)cc5)cn4)CC3)c2cc1OC` [Compound 70], the figures for the IC50 at D816V Kit and at wild type Kit were 1.01 to 10 nM and 100 to 1000 nM, respectively.
In the case of `COc1cc2ncnc(N3CCN(c4ncc(Nc5ccc(F)c(F)c5)cn4)CC3)c2cc1OC` [Compound 71], the IC50 lay in the range of 1.01 to 10 nM at D816V Kit and 100 to 1000 nM on wild type Kit.
`COc1cc2ncnc(N3CCN(c4ncc(OCc5ccc(C#N)cc5)cn4)CC3)c2cc1OC` [Compound 73]: at D816V Kit, the IC50 was more than 100 nM and the “times more potent” value was “at least 100 times”. Besides, the IC50 at wild type Kit is more than 1000 nM.
With `COc1cc2ncnc(N3CCN(c4ncc(N5CCCc6ccccc65)cn4)CC3)c2cc1OC` [Compound 74], the IC50 is 10 to 100 nM on D816V Kit and 100 to 1000 nM on wild type Kit.
On the same counts, the results for `COc1cc2ncnc(N3CCN(c4ncc(Cc5cccc(C(N)=O)c5)cn4)CC3)c2cc1OC` [Compound 75] are 1.01 to 10 nM and 100 to 1000 nM.
On the same counts, the results for `COc1cc2ncnc(N3CCN(c4ncc(NC(=O)Cc5ccccc5)cn4)CC3)c2cc1OC` [Compound 76] are 10 to 100 nM and 100 to 1000 nM.
Take `COc1ccc(COc2cnc(N3CCN(c4ncnc5cc(OC)c(OC)cc45)CC3)nc2)cc1` [Compound 77]: at D816V Kit, the IC50 lay within 10 to 100 nM and the “times more potent” value is listed as “at least 100 times”. Also, the IC50 on wild type Kit was more than 1000 nM.
Regarding `COc1cc2ncnc(N3CCN(c4ncc(S(=O)(=O)c5ccccc5)cn4)CC3)c2cc1OC` [Compound 78], the IC50 on D816V Kit is 10 to 100 nM; on wild type Kit it was more than 1000 nM.
The matching figures for `COc1cc2ncnc(N3CCN(c4ncc(Cc5ccccc5)cn4)CC3)c2cc1OC1CCNC1` (stereo not shown) [Compound 80]: 1.01 to 10 nM and 11 to 100 nM.
Consider `COc1cc2ncnc(N3CCN(c4ncc(Cc5ccc(C(C)(C)C)cc5)cn4)CC3)c2cc1OC` [Compound 81], for which the figures for the IC50 at D816V Kit and at wild type Kit were 10 to 100 nM and more than 1000 nM, respectively.
For `COc1cc2ncnc(N3CCN(c4ncc(Nc5ccc(C(C)(C)C)cc5)cn4)CC3)c2cc1OC` [Compound 82], the IC50 is more than 100 nM at D816V Kit and more than 1000 nM on wild type Kit.
As to `COc1cc2ncnc(N3CCN(c4ncc(Cc5ccc(OC(F)F)cc5)cn4)CC3)c2cc1OC` [Compound 86], the IC50 at D816V Kit is 1.01 to 10 nM; on wild type Kit, 100 to 1000 nM.
The matching figures for `CN1CCC(COc2ccc3ncnc(N4CCN(c5ncc(Cc6ccccc6)cn5)CC4)c3c2)CC1` [Compound 87]: 1.01 to 10 nM and 100 to 1000 nM.
On the same counts, the results for `COc1cc2ncnc(N3CCN(c4ncc(Cc5ccccc5)cn4)CC3)c2cc1OCC1CCNC1` (stereo not shown) [Compound 89] are less than 1 nM and 11 to 100 nM.
`COc1cc2ncnc(N3CCN(c4ncc(Cc5ccccc5)cn4)CC3)c2cc1OCC1CN(C)C1` [Compound 90]: the values for the IC50 on D816V Kit and on wild type Kit were less than 1 nM and 11 to 100 nM, respectively.
On the same counts, the results for `COc1cc2ncnc(N3CCN(c4ncc(Cc5ccccc5)cn4)CC3)c2cc1OC1CCNCC1` [Compound 91] are 1.01 to 10 nM and 11 to 100 nM.
On to `COc1cc2ncnc(N3CCN(c4ncc(Cc5ccccc5)cn4)CC3)c2cc1OC1CCN(C)C1` (stereo not shown) [Compound 92], for which the IC50 at D816V Kit lay within 1.01 to 10 nM; at wild type Kit it was 100 to 1000 nM.
`COc1cc2c(N3CCN(c4ncc(Cc5ccccc5)cn4)CC3)ncnc2cc1OCC1(C)COC1` [Compound 93]: the IC50 at D816V Kit lay in the range of 1.01 to 10 nM; on wild type Kit it was 11 to 100 nM.
The matching figures for `COc1cc2ncnc(N3CCN(c4ncc(OCc5ccc(C(C)(C)C)cc5)cn4)CC3)c2cc1OC` [Compound 94]: more than 100 nM and more than 1000 nM.
The matching figures for `CN1CCC(COc2ccc3ncnc(N4CCN(c5ncc(Cc6ccccc6)c(N)n5)CC4)c3c2)CC1` [Compound 95]: 1.01 to 10 nM and 11 to 100 nM.
For the molecule `COc1cc2ncnc(N3CCN(c4ncc(Cc5ccccc5)cn4)CC3)c2cc1OCC1CCN(C)C1` (stereo not shown) [Compound 96], the IC50 at D816V Kit was less than 1 nM; on wild type Kit, 11 to 100 nM.
Take `COc1cc2ncnc(N3CCN(c4ncc(Cc5ccccc5)cn4)CC3)c2cc1OCC1CCCNC1` (stereo not shown) [Compound 97]: the IC50 on D816V Kit is less than 1 nM; on wild type Kit, 11 to 100 nM.
On the same counts, the results for `CN1CCC(COc2ccc3ncnc(N4CCN(c5ncc(Cc6ccccc6)c(=O)[nH]5)CC4)c3c2)CC1` [Compound 100] are 1.01 to 10 nM and 100 to 1000 nM.
For the molecule `COc1cc2ncnc(N3CCN(c4ncc(Cc5cccc(OC(F)(F)F)c5)cn4)CC3)c2cc1OC` [Compound 101], the IC50 lay in the range of 10 to 100 nM at D816V Kit and 100 to 1000 nM at wild type Kit.
The matching figures for `COc1cc2ncnc(N3CCN(c4ncc(OCc5ccc(C(F)(F)F)cc5)cn4)CC3)c2cc1OC` [Compound 102, 6,7-dimethoxy-4-(4-(5-((4-(trifluoromethyl)benzyl)oxy)pyrimidin-2-yl)piperazin-1-yl)quinazoline]: more than 100 nM and more than 1000 nM.
The matching figures for `COc1cc2ncnc(N3CCN(c4ncc(OCc5cc(Cl)cc(Cl)c5)cn4)CC3)c2cc1OC` [Compound 103]: more than 100 nM and more than 1000 nM.
The matching figures for `COc1cc2ncnc(N3CCN(c4ncc(Cc5ccccc5)cn4)CC3)c2cc1OC[C@H]1CNCCO1` [Compound 104]: less than 1 nM and 11 to 100 nM.
As to `COc1cc2ncnc(N3CCN(c4ncc(Cc5ccccc5)cn4)CC3)c2cc1OC[C@@H]1CNCCO1` [Compound 106], the IC50 at D816V Kit lay in the range of 1.01 to 10 nM; on wild type Kit, 11 to 100 nM.
On the same counts, the results for `COc1cc2ncnc(N3CCN(c4ncc(Cc5ccccc5)cn4)CC3)c2cc1OCCN1CCCC1=O` [Compound 110] are less than 1 nM and 11 to 100 nM.
On the same counts, the results for `COc1cc2ncnc(N3CCN(c4ncc(Cc5ccccc5)cn4)CC3)c2cc1OC[C@@H]1CCCN(C)C1` [Compound 113] are less than 1 nM and 11 to 100 nM.
The matching figures for `COc1cc2ncnc(N3CCN(c4ncc(Cc5ccccc5)cn4)CC3)c2cc1OCC1CCCN(C)C1` (stereo not shown) [Compound 114]: less than 1 nM and 11 to 100 nM.
As to `COc1cc2ncnc(N3CCN(c4ncc(Cc5ccccc5)cn4)CC3)c2cc1OC[C@H]1CCCN(C)C1` [Compound 115], the IC50 at D816V Kit lay within 1.01 to 10 nM; at wild type Kit, 11 to 100 nM.
For `COc1cc2ncnc(N3CCN(c4ncc(Cc5ccccc5)cn4)CC3)c2cc1OCCN1CCNCC1` [Compound 116], the results for the IC50 on D816V Kit and at wild type Kit were 1.01 to 10 nM and 11 to 100 nM, respectively.
On to `COc1cc2ncnc(N3CCN(c4ncc(Cc5ccccc5)cn4)CC3)c2cc1OCC1CN(C)CCO1` (stereo not shown) [Compound 117], for which the IC50 is less than 1 nM on D816V Kit and 11 to 100 nM at wild type Kit.
